EC50, AC50 and IC50 data for five molecules are collected here from ChEMBL document CHEMBL1201862, “PubChem BioAssay data set” (2004).

The structures appear in SMILES notation. Active and inactive are the calls of the source. For most assays here, no stated cut-off is given here; in the data, actives have a measured EC50 and inactives only a lower limit.

Assay [1] in a line: NIH-3T3 fibroblast cytotoxicity, dose response, cytotoxicity control, cell-based, fluorescence, Alamar Blue, secondary assay (AID 2327).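 Further: NIH-3T3 mouse fibroblasts cultured with fluconazole at 8 µg/mL.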 In kind it is functional. On the technique in general: Alamar Blue is a resazurin reagent that responds to reducing activity.
A short description of assay [2]: fluconazole-exposed Candida albicans growth modulators – fluorescence, retest, confirmation (AID 2467). Format: functional, cell-based.
For assay [3], the target named is T1, Replicative DNA helicase DnaB (Mycobacterium tuberculosis, UniProt P9WMR3).
T1 sequence (P9WMR3 whole entry): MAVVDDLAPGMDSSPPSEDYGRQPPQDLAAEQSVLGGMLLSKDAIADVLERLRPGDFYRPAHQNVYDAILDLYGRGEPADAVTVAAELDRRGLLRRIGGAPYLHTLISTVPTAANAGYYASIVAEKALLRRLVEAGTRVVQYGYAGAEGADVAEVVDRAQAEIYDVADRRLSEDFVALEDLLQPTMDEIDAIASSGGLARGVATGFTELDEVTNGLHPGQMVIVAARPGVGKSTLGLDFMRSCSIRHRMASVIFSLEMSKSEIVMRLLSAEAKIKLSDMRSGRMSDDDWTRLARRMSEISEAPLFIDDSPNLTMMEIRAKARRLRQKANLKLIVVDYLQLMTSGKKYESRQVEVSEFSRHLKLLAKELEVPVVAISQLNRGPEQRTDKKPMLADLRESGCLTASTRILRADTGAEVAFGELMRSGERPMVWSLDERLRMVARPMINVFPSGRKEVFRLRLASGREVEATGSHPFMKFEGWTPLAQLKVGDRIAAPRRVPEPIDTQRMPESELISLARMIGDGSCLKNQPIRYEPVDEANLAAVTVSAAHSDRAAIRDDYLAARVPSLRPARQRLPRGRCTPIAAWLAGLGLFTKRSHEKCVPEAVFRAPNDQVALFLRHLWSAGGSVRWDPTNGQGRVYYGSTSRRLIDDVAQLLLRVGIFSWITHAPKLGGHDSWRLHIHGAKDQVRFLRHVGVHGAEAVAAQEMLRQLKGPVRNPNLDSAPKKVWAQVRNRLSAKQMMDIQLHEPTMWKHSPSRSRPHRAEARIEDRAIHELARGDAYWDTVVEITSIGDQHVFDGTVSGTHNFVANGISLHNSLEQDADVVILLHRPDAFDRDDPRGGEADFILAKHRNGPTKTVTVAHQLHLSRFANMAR
As to the kind of experiment: DnaB intein splicing inhibitors, dose response, biochemical, cell-free fluorescence (AID 449749). Format: functional.

Assay [4] deals with T2, Apoptotic protease-activating factor 1 (Homo sapiens, UniProt O14727).
T2 sequence (O14727 whole entry): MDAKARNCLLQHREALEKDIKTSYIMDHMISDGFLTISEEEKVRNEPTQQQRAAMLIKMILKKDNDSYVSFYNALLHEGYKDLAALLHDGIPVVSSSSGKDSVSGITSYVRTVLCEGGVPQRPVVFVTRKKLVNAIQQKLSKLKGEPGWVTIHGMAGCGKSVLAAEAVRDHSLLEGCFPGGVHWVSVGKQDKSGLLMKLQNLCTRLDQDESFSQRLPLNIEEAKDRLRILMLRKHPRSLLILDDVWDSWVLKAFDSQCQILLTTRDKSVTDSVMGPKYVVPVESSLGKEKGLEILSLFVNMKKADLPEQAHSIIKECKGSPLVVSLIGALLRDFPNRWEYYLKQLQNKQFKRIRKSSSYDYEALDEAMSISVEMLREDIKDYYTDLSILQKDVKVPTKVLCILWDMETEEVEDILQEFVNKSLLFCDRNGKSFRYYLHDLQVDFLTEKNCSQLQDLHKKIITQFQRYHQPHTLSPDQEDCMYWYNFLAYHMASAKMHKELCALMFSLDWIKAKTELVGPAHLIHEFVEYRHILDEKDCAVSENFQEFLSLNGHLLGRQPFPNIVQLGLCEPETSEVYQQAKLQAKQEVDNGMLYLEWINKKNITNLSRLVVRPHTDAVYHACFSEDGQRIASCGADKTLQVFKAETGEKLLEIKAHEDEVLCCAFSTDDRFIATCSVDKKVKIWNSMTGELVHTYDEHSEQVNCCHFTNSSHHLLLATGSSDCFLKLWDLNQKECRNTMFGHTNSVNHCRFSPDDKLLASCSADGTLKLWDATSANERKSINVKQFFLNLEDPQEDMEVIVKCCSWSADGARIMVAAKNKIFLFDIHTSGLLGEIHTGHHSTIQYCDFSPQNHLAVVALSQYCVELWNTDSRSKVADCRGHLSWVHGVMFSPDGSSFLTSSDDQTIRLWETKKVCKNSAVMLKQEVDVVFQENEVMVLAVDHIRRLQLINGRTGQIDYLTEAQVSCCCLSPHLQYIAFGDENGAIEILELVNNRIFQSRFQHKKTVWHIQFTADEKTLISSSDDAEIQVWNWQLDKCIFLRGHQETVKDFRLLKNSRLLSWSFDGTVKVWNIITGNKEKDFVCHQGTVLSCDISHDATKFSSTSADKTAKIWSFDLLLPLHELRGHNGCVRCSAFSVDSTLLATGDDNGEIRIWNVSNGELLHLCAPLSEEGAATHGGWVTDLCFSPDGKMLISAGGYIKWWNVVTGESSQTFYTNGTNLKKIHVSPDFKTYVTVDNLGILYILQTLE
Format: functional.

For another assay, the target named is T3, Protein RecA (Mycobacterium tuberculosis, UniProt P9WHJ3).
T3 sequence (P9WHJ3 whole entry): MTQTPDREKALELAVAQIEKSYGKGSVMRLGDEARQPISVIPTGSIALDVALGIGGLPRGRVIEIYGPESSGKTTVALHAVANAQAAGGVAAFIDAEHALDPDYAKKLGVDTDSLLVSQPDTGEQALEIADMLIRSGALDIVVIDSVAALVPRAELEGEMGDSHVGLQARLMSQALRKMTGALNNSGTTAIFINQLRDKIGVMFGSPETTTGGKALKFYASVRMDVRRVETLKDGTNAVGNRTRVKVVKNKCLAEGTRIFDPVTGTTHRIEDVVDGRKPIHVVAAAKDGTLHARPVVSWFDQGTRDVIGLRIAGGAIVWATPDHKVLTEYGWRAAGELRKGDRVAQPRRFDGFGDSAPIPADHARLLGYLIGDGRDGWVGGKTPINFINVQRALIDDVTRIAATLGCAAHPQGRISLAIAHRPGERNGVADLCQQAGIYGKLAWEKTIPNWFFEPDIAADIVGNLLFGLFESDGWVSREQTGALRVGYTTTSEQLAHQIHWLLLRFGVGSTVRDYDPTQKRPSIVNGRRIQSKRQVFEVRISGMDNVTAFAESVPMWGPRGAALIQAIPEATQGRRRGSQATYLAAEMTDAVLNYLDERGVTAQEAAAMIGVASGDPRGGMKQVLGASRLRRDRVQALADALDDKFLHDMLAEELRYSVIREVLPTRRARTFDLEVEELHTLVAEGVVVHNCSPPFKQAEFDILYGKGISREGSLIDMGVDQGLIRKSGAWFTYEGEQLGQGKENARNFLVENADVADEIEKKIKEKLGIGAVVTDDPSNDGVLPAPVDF
Kind of assay: Fluorescence Cell-Free Homogeneous Dose Retest to Identify Inhibitors of RecA-Intein Splicing Activity. [Related pubchem assays (depositor defined):AID2097, AID2223, AID489010, AID492950]. Format: functional.

For orientation: EC50 means the concentration needed to bring the measured effect to its halfway point. For the molecule `CCCCC(=O)NC(c1ccccc1)c1ccc2cccnc2c1O` (stereo not given), the EC50 in assay [1] is 19.9 µM (inconclusive); in assay [2], 0.569 µM (active).

On to `O=C(/C=C/c1cccs1)NC(=S)NNC(=O)c1ccccc1O`, for which the EC50 in assay [1] was 35.5 µM (active); in assay [2], > 38 µM (not active).

By AC50 is commonly meant the concentration giving half of the maximal activity seen. A word on the IC50: it is the point on the concentration scale where inhibition reaches its midpoint. Consider `CC(=O)N(Cc1ccc(F)cc1)C1=C(NCCc2ccccc2)C(=O)c2ccccc2C1=O`, for which, in assay [3], the half-maximal activity concentration (AC50) was 4.93 µM (active). Further, in assay [4], the IC50 is 7.39 µM (active). In addition, the EC50 in assay [1] was 9.84 µM (inconclusive); in assay [2], 0.785 µM (active); on Protein RecA it was 1.42 µM (active).

Turning to `O=C(N/N=C1\C/C(=N\NC(=O)c2ccncc2)c2ccccc21)c1ccncc1`, in assay [3], the AC50 was 6.09 µM (active). Moreover, the IC50 in assay [4] is 12.8 µM (active). Further, the EC50 at Protein RecA is 0.732 µM (active).

`COc1ccc(-n2c3nc4ccccc4nc3c3c(=N)oc(C)nc32)cc1`: the AC50 in assay [3] was > 120 µM (inactive). Also, the IC50 in assay [4] was 19.1 µM (active). Also, the EC50 at Protein RecA was > 380 µM (inactive).
